Experimental data published in patent publication US6670446B1, “N1 modified glycopeptides” (Eli Lilly and Company, priority 1998, dated 2003).

Key:
Format in all cases: cell-based
[1] = test system: Staphylococcus aureus SA1199; test: MIC, standard broth micro-dilution assay, SA 1199
Procedure: (§1) The antibacterial efficacy of the present compounds is illustrated by Table III. The minimal inhibitory concentrations (MICs) were determined using a standard broth micro-dilution assay.

[2] = test system: Enterococcus gallinarum 245; test: MIC, standard broth micro-dilution assay, EG 245
Procedure: as §1

[3] = test system: Sensitive Enterococcus faecium and faecalis; test: MIC, standard broth micro-dilution assay, Sensitive; details: geometric mean of 4-6 isolates
Procedure: as §1

[4] = test system: Staphylococcus aureus X778; test: MIC, standard broth micro-dilution assay, SA X778
Procedure: as §1

[5] = test system: Resistant Enterococcus faecium and faecalis; test: MIC, standard broth micro-dilution assay, Resistant; details: geometric mean of 4-6 isolates
Procedure: as §1

[6] = test system: Staphylococcus aureus 446; test: MIC, standard broth micro-dilution assay, SA 446
Procedure: as §1

[7] = test system: Staphylococcus haemolyticus 415; test: MIC, standard broth micro-dilution assay, SH 415
Procedure: as §1

[8] = test system: Staphylococcus aureus 491; test: MIC, standard broth micro-dilution assay, SA 491
Procedure: as §1

[9] = test system: Staphylococcus aureus SA1199A; test: MIC, standard broth micro-dilution assay, SA 1199A
Procedure: as §1

[10] = test system: Enterococcus faecalis 276; test: MIC, standard broth micro-dilution assay, EF 276
Procedure: as §1

[11] = test system: Staphylococcus aureus 447; test: MIC, standard broth micro-dilution assay, SA 447
Procedure: as §1

[12] = test system: Enterococcus faecalis 2041; test: MIC, standard broth micro-dilution assay, EF 2041
Procedure: as §1

[13] = test system: Staphylococcus aureus X400; test: MIC, standard broth micro-dilution assay, SA X400
Procedure: as §1

[14] = test system: Escherichia coli EC14; test: MIC, standard broth micro-dilution assay, EC 14
Procedure: as §1

[15] = test system: Staphylococcus aureus S13E
Procedure: as §1

[16] = test system: Haemophilus influenzae RD; test: MIC, standard broth micro-dilution assay, HFRD
Procedure: as §1

[17] = test system: Enterococcus faecium 180; test: MIC, standard broth micro-dilution assay, EF 180
Procedure: as §1

[18] = test system: Enterococcus faecium 180-1; test: MIC, standard broth micro-dilution assay, EF 180-1
Procedure: as §1

[19] = test system: Staphylococcus aureus 489; test: MIC, standard broth micro-dilution assay, SA 489
Procedure: as §1

[20] = test system: Staphylococcus haemolyticus 105; test: MIC, standard broth micro-dilution assay, SH 105
Procedure: as §1

[21] = test system: Staphylococcus epidermidis 270; test: MIC, standard broth micro-dilution assay, SE 270
Procedure: as §1

Row | Structure (SMILES) | minimal inhibitory concentration (MIC), SA 1199 [1] | minimal inhibitory concentration (MIC), EG 245 [2] | minimal inhibitory concentration (MIC), Sensitive [3] | minimal inhibitory concentration (MIC), SA X778 [4] | minimal inhibitory concentration (MIC), Resistant [5] | minimal inhibitory concentration (MIC), SA 446 [6] | minimal inhibitory concentration (MIC), SH 415 [7] | minimal inhibitory concentration (MIC), SA 491 [8] | minimal inhibitory concentration (MIC), SA 1199A [9] | minimal inhibitory concentration (MIC), EF 276 [10] | minimal inhibitory concentration (MIC), SA 447 [11] | minimal inhibitory concentration (MIC), EF 2041 [12] | minimal inhibitory concentration (MIC), SA X400 [13] | minimal inhibitory concentration (MIC), EC 14 [14] | minimal inhibitory concentration (MIC), SA S13E [15] | minimal inhibitory concentration (MIC), HFRD [16] | minimal inhibitory concentration (MIC), EF 180 [17] | minimal inhibitory concentration (MIC), EF 180-1 [18] | minimal inhibitory concentration (MIC), SA 489 [19] | minimal inhibitory concentration (MIC), SH 105 [20] | other results
1 | CC1OC(OC2C(Oc3c4cc5cc3Oc3ccc(cc3Cl)[C@@H](O)[C@@H](NC(=O)[C@@H](Cc3ccc(Cl)cc3)NC(=O)OC(C)(C)C)C(=O)N[C@@H](CC(N)=O)C(=O)N[C@H]5C(=O)N[C@H]3C(=O)NC(C(=O)N[C@H](C(=O)O)c5cc(O)cc(O)c5-c5cc3ccc5O)[C@H](OC3CC(C)(N)C(O)C(C)O3)c3ccc(c(Cl)c3)O4)OC(CO)C(O)C2O)CC(C)(N)C1O (stereo partly drawn) [Example 20, N^1-[N-BOC-D-3-(p-chlorophenyl)alanine] derivative of desleucylA82846B] | 0.125 | 0.5 | 2 | 0.25 | >128 | 0.5 | 16 | ≦.06 | no growth | 0.125 | 0.25 | ≦.06 | ≦.06 | >64 | 0.125 | 8 | 16 | 0.25 | ≦.06 | 8 | minimal inhibitory concentration (MIC), SE 270 [21]: 0.125
2 | CC(C)CC(NCc1ccc(-c2ccccc2)cc1)C(=O)NC1C(=O)NC(CC(N)=O)C(=O)NC2C(=O)NC3C(=O)NC(C(=O)NC(C(=O)O)c4cc(O)cc(O)c4-c4cc3ccc4O)C(OC3CC(C)(N)C(O)C(C)O3)c3ccc(c(Cl)c3)Oc3cc2cc(c3OC2OC(CO)C(O)C(O)C2OC2CC(C)(NCc3ccc(-c4ccccc4)cc3)C(O)C(C)O2)Oc2ccc(cc2Cl)C1O [Example 35, N^1-[N-(p-phenylbenzyl)-D-leucine] derivative of N^DISACC-(p-phenylbenzyl)desleucylA82846B] | 2 | 1 | 0.66 | 1 | 4.8 | 2 | 2 | 1 | 1 | 1 | 2 | 0.5 | 2 | >64 | 2 | >64 | 1 | 0.25 | 2 | 0.5 | minimal inhibitory concentration (MIC), SE 270 [21]: 1
3 | CC1OC(OC2c3ccc(c(Cl)c3)Oc3cc4cc(c3OC3OC(CO)C(O)C(O)C3OC3CC(C)(NCc5ccc(-c6ccccc6)cc5)C(O)C(C)O3)Oc3ccc(cc3Cl)C(O)C(NC(=O)C3CCCN3C(=O)OC(C)(C)C)C(=O)NC(CC(N)=O)C(=O)NC4C(=O)NC3C(=O)NC2C(=O)NC(C(=O)O)c2cc(O)cc(O)c2-c2cc3ccc2O)CC(C)(N)C1O [Example 26, N^1-(N-BOC-D-proline) derivative of N^DISACCC-(p-phenylbenzyl)desleucylA82846B] | 1 | 0.5 | 0.76 | 0.5 | 23 | 2 | 2 | ≦.06 | 0.125 | 1 | 1 | 0.25 | 0.5 | >64 | 1 | >64 | 4 | ≦.06 | 0.5 | 1 | minimal inhibitory concentration (MIC), SE 270 [21]: 0.25
4 | CC(C)CC(N)C(=O)NC1C(=O)NC(CC(N)=O)C(=O)NC2C(=O)NC3C(=O)NC(C(=O)NC(C(=O)O)c4cc(O)cc(O)c4-c4cc3ccc4O)C(OC3CC(C)(N)C(O)C(C)O3)c3ccc(c(Cl)c3)Oc3cc2cc(c3OC2OC(CO)C(O)C(O)C2OC2CC(C)(NCc3ccc(-c4ccccc4)cc3)C(O)C(C)O2)Oc2ccc(cc2Cl)C1O [Example 13, N^1-D-leucine derivative of N^DISACC-(p-phenylbenzyl)desleucylA82846B] | 1 | ≦.06 | 0.095 | 1 | 2.4 | 1 | 0.5 | 1 | 0.25 | 0.5 | 1 | ≦.06 | 0.5 | >64 | 0.5 | 16 | 0.25 | ≦.06 | 0.5 | 1 | minimal inhibitory concentration (MIC), SE 270 [21]: 0.25
5 | CC1OC(OC2c3ccc(c(Cl)c3)Oc3cc4cc(c3OC3OC(CO)C(O)C(O)C3OC3CC(C)(NCc5ccc(-c6ccccc6)cc5)C(O)C(C)O3)Oc3ccc(cc3Cl)C(O)C(NC(=O)CCCCCCCc3ccccc3)C(=O)NC(CC(N)=O)C(=O)NC4C(=O)NC3C(=O)NC2C(=O)NC(C(=O)O)c2cc(O)cc(O)c2-c2cc3ccc2O)CC(C)(N)C1O (stereo not drawn) [Example 3, N^1-(8-phenyl-n-octanoyl)-N^DISACC-(p-phenylbenzyl)desleucylA82846B] | 1 | 2 | 2.6 | 1 | 6.7 | 1 | 2 | 1 | 0.5 | 0.5 | 1 | 0.5 | 1 | >64 | 2 | >64 | 1 | ≦.06 | 1 | 1 | minimal inhibitory concentration (MIC), SE 270 [21]: 1
